In patent US20100222269A1, “IMPROVED DERIVATIVES OF AMYLIN” (priority 2007, published 2010):
Starred links: 1 amine or outer side, 2 acyl side, 3 side chain; linkers in the order of their positions; H or OH if unused. Positions of bridges follow the written chain, without caps; N, C: chain ends. Residues, ends and D or L forms follow the SMILES beside them. Groups on a side chain read outwards from the residue. *: point of attachment. X1 = O=C(CCCCCCCCCCCCCCCc1nnn[nH]1)NS(=O)(=O)CCCC(=O)*; C20 diacid = O=C(O)CCCCCCCCCCCCCCCCCCC(=O)*; C18 diacid = O=C(O)CCCCCCCCCCCCCCCCC(=O)*; γGlu = O=C(O)[C@H](CCC(=O)[*:2])N[*:1]; AEEA = NCCOCCOCC(=O)O

Target: T1, Amylin 3(a) receptor (human calcitonin receptor (CTa) with RAMP-3) (Homo sapiens, UniProt O60896+P30988)
T1 construct: expressed in transfected cells; host or cells: BHK570 (baby hamster kidney) cells, stably transfected, with CRE-luciferase reporter
Assay: Amylin luciferase assay (CRE-luciferase reporter in BHK Amylin 3(a)//CRE-luc cells)
Type: cell-based
Conditions: BHK570 cells with human calcitonin receptor (CTa), RAMP-3 and CRE-luciferase reporter; 4 hours incubation; read-out: Potency luciferase assay
In short: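 BHK570 cells stably expressing human calcitonin receptor (CTa), RAMP-3 and a CRE-luciferase reporter, about 20.000 cells/well, were exposed to standard or sample for 4 h at 37° C in phenol-red-free DMEM with 10% FBS and 10 mM Hepes pH 7,4. Luminescence was read after 30 min with LucLite at room temperature.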

T1 sequence (O60896 24-148): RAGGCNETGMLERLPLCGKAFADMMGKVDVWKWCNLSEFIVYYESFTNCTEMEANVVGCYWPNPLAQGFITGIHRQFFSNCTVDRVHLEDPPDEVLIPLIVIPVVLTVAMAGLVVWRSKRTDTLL
T1 sequence (P30988 25-474): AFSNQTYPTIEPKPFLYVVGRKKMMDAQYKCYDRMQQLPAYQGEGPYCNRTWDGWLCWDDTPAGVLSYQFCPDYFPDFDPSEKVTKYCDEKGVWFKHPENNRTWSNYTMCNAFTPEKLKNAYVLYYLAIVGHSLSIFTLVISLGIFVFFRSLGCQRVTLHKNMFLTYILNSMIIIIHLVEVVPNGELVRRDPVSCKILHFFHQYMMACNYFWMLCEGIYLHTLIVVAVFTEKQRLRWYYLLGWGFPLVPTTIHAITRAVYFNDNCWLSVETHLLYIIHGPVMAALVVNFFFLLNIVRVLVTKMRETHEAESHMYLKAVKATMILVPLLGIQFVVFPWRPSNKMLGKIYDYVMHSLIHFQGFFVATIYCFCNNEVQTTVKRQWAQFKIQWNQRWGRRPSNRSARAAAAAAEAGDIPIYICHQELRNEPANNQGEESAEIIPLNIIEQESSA

Row | SMILES | EC50 [nM]
1 | CC[C@H](C)[C@H](NC(=O)[C@H](CCCCNC(=O)COCCOCCNC(=O)COCCOCCNC(=O)CC[C@H](NC(=O)CC[C@H](NC(=O)CC[C@H](NC(=O)CC[C@H](NC(=O)CCCCCCCCCCCCCCCCC(=O)O)C(=O)O)C(=O)O)C(=O)O)C(=O)O)NC(=O)CNC(=O)[C@H](Cc1ccccc1)NC(=O)[C@H](CC(N)=O)NC(=O)[C@H](CC(N)=O)NC(=O)[C@H](CO)NC(=O)[C@H](CO)NC(=O)[C@H](Cc1c[nH]cn1)NC(=O)[C@@H](NC(=O)[C@H](CC(C)C)NC(=O)[C@H](Cc1ccccc1)NC(=O)[C@H](CC(N)=O)NC(=O)[C@H](C)NC(=O)[C@H](CC(C)C)NC(=O)[C@H](CCCNC(=N)N)NC(=O)[C@H](CCC(N)=O)NC(=O)[C@@H](NC(=O)[C@H](C)NC(=O)[C@@H]1CSSC[C@H](NC(=O)[C@@H](N)CCCCN)C(=O)N[C@@H](CC(N)=O)C(=O)N[C@@H]([C@@H](C)O)C(=O)N[C@@H](C)C(=O)N[C@@H]([C@@H](C)O)C(=O)N1)[C@@H](C)O)C(C)C)C(=O)N[C@@H](CC(C)C)C(=O)N1CCC[C@H]1C(=O)N1CCC[C@H]1C(=O)N[C@H](C(=O)N[C@@H](CC(N)=O)C(=O)N[C@H](C(=O)NCC(=O)N[C@@H](CO)C(=O)N[C@@H](CC(N)=O)C(=O)N[C@H](C(=O)N[C@@H](Cc1ccc(O)cc1)C(N)=O)[C@@H](C)O)C(C)C)[C@@H](C)O [Example 26, N-epsilon25-[2-(2-{2-[2-(2-{2-[(S)-4-carboxy-4-((S)-4-carboxy-4-{(S)-4-carboxy-4-[(S)-4-carboxy-4-(17-carboxyheptadecanoylamino)butyrylamino]butyrylamino}butyrylamino)butyrylamino]ethoxy}ethoxy)acetylamino]ethoxy}ethoxy)acetyl]-[Lys25]-pramlintide (1-37)] (H-KCNTATCATQRLANFLVHSSNNFGK([AEEA-AEEA-γGlu-γGlu-γGlu-γGlu-C18 diacid])ILPPTNVGSNTY-NH2; disulfide 2-7; N-terminus and C-terminus assumed) | 0.3
2 | CC[C@H](C)[C@H](NC(=O)[C@H](CCCCNC(=O)CC[C@H](NC(=O)CCCCCCCCCCCCCCCCC(=O)O)C(=O)O)NC(=O)CNC(=O)[C@H](Cc1ccccc1)NC(=O)[C@H](CC(N)=O)NC(=O)[C@H](CC(N)=O)NC(=O)[C@H](CO)NC(=O)[C@H](CO)NC(=O)[C@H](Cc1c[nH]cn1)NC(=O)[C@@H](NC(=O)[C@H](CC(C)C)NC(=O)[C@H](Cc1ccccc1)NC(=O)[C@H](CC(N)=O)NC(=O)[C@H](C)NC(=O)[C@H](CC(C)C)NC(=O)[C@H](CCCNC(=N)N)NC(=O)[C@H](CCC(N)=O)NC(=O)[C@@H](NC(=O)[C@H](C)NC(=O)[C@@H]1CSSC[C@H](NC(=O)[C@@H](N)CCCCN)C(=O)N[C@@H](CC(N)=O)C(=O)N[C@@H]([C@@H](C)O)C(=O)N[C@@H](C)C(=O)N[C@@H]([C@@H](C)O)C(=O)N1)[C@@H](C)O)C(C)C)C(=O)N[C@@H](CC(C)C)C(=O)N1CCC[C@H]1C(=O)N1CCC[C@H]1C(=O)N[C@H](C(=O)N[C@@H](CC(N)=O)C(=O)N[C@H](C(=O)NCC(=O)N[C@@H](CO)C(=O)N[C@@H](CC(N)=O)C(=O)N[C@H](C(=O)N[C@@H](Cc1ccc(O)cc1)C(N)=O)[C@@H](C)O)C(C)C)[C@@H](C)O [Example 27, N-epsilon25-[(S)-4-carboxy-4-(17-carboxyheptadecanoylamino)butyryl]-[Lys25]-pramlintide (1-37)] (H-KCNTATCATQRLANFLVHSSNNFGK([γGlu-C18 diacid])ILPPTNVGSNTY-NH2; disulfide 2-7; N-terminus assumed) | 0.09
3 | CC[C@H](C)[C@H](NC(=O)[C@@H]1CCCN1C(=O)CNC(=O)[C@H](Cc1ccccc1)NC(=O)[C@H](CC(N)=O)NC(=O)[C@H](CC(N)=O)NC(=O)[C@H](CO)NC(=O)[C@H](CO)NC(=O)[C@H](Cc1c[nH]cn1)NC(=O)[C@@H](NC(=O)[C@H](CC(C)C)NC(=O)[C@H](Cc1ccccc1)NC(=O)[C@H](CC(N)=O)NC(=O)[C@H](C)NC(=O)[C@H](CC(C)C)NC(=O)[C@H](CCCNC(=N)N)NC(=O)[C@H](CCC(N)=O)NC(=O)[C@@H](NC(=O)[C@H](C)NC(=O)[C@@H]1CSSC[C@H](NC(=O)[C@@H](N)CCCCN)C(=O)N[C@@H](CCCCNC(=O)COCCOCCNC(=O)CCCS(=O)(=O)NC(=O)CCCCCCCCCCCCCCCc2nnn[nH]2)C(=O)N[C@@H]([C@@H](C)O)C(=O)N[C@@H](C)C(=O)N[C@@H]([C@@H](C)O)C(=O)N1)[C@@H](C)O)C(C)C)C(=O)N[C@@H](CC(C)C)C(=O)N1CCC[C@H]1C(=O)N1CCC[C@H]1C(=O)N[C@H](C(=O)N[C@@H](CC(N)=O)C(=O)N[C@H](C(=O)NCC(=O)N[C@@H](CO)C(=O)N[C@@H](CC(N)=O)C(=O)N[C@H](C(=O)N[C@@H](Cc1ccc(O)cc1)C(N)=O)[C@@H](C)O)C(C)C)[C@@H](C)O [Example 30, N-epsilon3-[2-(2-{2-[4-(16-1H-tetrazol-5-yl-hexadecanoylsulfamoyl)butyrylamino]ethoxy}ethoxy)acetyl]-[Lys3]pramlintide (1-37)] (H-KCK([AEEA-X1])TATCATQRLANFLVHSSNNFGPILPPTNVGSNTY-NH2; disulfide 2-7; N-terminus and C-terminus assumed) | 0.1

Compounds with a lower EC50, results first:

Row | EC50 [nM] | SMILES
4 | 0.07 | CC[C@H](C)[C@H](NC(=O)[C@@H]1CCCN1C(=O)CNC(=O)[C@H](Cc1ccccc1)NC(=O)[C@H](CC(N)=O)NC(=O)[C@H](CC(N)=O)NC(=O)[C@H](CO)NC(=O)[C@H](CO)NC(=O)[C@H](CCCNC(=N)N)NC(=O)[C@H](C)NC(=O)[C@H](CC(C)C)NC(=O)[C@H](Cc1ccccc1)NC(=O)[C@H](CC(N)=O)NC(=O)[C@H](C)NC(=O)[C@H](CC(C)C)NC(=O)[C@H](CCCNC(=N)N)NC(=O)[C@H](CCC(N)=O)NC(=O)[C@@H](NC(=O)[C@H](C)NC(=O)[C@@H]1CSSC[C@H](NC(=O)[C@@H](N)CCCCNC(=O)CC[C@H](NC(=O)CCCCCCCCCCCCCCCCC(=O)O)C(=O)O)C(=O)NCC(=O)N[C@@H]([C@@H](C)O)C(=O)N[C@@H](C)C(=O)N[C@@H]([C@@H](C)O)C(=O)N1)[C@@H](C)O)C(=O)N[C@@H](CC(C)C)C(=O)N[C@@H](CO)C(=O)N1CCC[C@H]1C(=O)N[C@H](C(=O)N[C@@H](CC(N)=O)C(=O)N[C@H](C(=O)NCC(=O)N[C@@H](CO)C(=O)N[C@@H](CC(N)=O)C(=O)N[C@H](C(=O)N[C@@H](Cc1ccc(O)cc1)C(N)=O)[C@@H](C)O)C(C)C)[C@@H](C)O [Example 23, N-epsilon1-[(S)-4-carboxy-4-(17-carboxyheptadecanoylamino)butyryl]-[Gly3,Ala17,Arg18,Ser28]-pramlintide (1-37)] (H-K([γGlu-C18 diacid])CGTATCATQRLANFLARSSNNFGPILSPTNVGSNTY-NH2; disulfide 2-7)
5 | 0.08 | CC[C@H](C)[C@H](NC(=O)[C@@H]1CCCN1C(=O)CNC(=O)[C@H](Cc1ccccc1)NC(=O)[C@H](CC(N)=O)NC(=O)[C@H](CC(N)=O)NC(=O)[C@H](CO)NC(=O)[C@H](CO)NC(=O)[C@H](Cc1c[nH]cn1)NC(=O)[C@@H](NC(=O)[C@H](CC(C)C)NC(=O)[C@H](Cc1ccccc1)NC(=O)[C@H](CC(N)=O)NC(=O)[C@H](C)NC(=O)[C@H](CC(C)C)NC(=O)[C@H](CCCNC(=N)N)NC(=O)[C@H](CCC(N)=O)NC(=O)[C@@H](NC(=O)[C@H](C)NC(=O)[C@@H]1CSSC[C@H](NC(=O)[C@H](CCC(=O)O)NC(=O)[C@H](CCCNC(=N)N)NC(=O)[C@H](CCC(=O)O)NC(=O)[C@H](CCC(=O)O)NC(=O)CCCCCCCCCCCCCCCCCCC(=O)O)C(=O)N[C@@H](CC(N)=O)C(=O)N[C@@H]([C@@H](C)O)C(=O)N[C@@H](C)C(=O)N[C@@H]([C@@H](C)O)C(=O)N1)[C@@H](C)O)C(C)C)C(=O)N[C@@H](CC(C)C)C(=O)N1CCC[C@H]1C(=O)N1CCC[C@H]1C(=O)N[C@H](C(=O)N[C@@H](CC(N)=O)C(=O)N[C@H](C(=O)NCC(=O)N[C@@H](CO)C(=O)N[C@@H](CC(N)=O)C(=O)N[C@H](C(=O)N[C@@H](Cc1ccc(O)cc1)C(N)=O)[C@@H](C)O)C(C)C)[C@@H](C)O [Example 25, N-alpha-(19-carboxynonadecanoyl)-Glu-Glu-Arg-[Glu1]-pramlintide (1-37)] ({C20 diacid}-EERECNTATCATQRLANFLVHSSNNFGPILPPTNVGSNTY-NH2; disulfide 5-10; C-terminus assumed)
6 | 0.04 | CC(C)C[C@H](NC(=O)[C@H](CC(N)=O)NC(=O)[C@H](CCC(N)=O)NC(=O)[C@H](CO)NC(=O)[C@H](CO)NC(=O)[C@H](CCCNC(=N)N)NC(=O)[C@@H](NC(=O)[C@H](CC(C)C)NC(=O)[C@H](Cc1ccccc1)NC(=O)[C@H](CC(N)=O)NC(=O)[C@H](C)NC(=O)[C@H](CC(C)C)NC(=O)[C@H](CCCNC(=N)N)NC(=O)[C@H](CCC(N)=O)NC(=O)[C@@H](NC(=O)[C@H](C)NC(=O)[C@@H]1CSSC[C@H](NC(=O)[C@@H](N)CCCCN)C(=O)N[C@@H](CCCCNC(=O)CC[C@H](NC(=O)CCCCCCCCCCCCCCCCC(=O)O)C(=O)O)C(=O)N[C@@H]([C@@H](C)O)C(=O)N[C@@H](C)C(=O)N[C@@H]([C@@H](C)O)C(=O)N1)[C@@H](C)O)C(C)C)C(=O)NCC(=O)N1CCC[C@H]1C(=O)N[C@H](C(=O)N[C@@H](CC(C)C)C(=O)N1CCC[C@H]1C(=O)N1CCC[C@H]1C(=O)N[C@H](C(=O)N[C@@H](CC(N)=O)C(=O)N[C@H](C(=O)NCC(=O)N[C@@H](CO)C(=O)N[C@@H](CC(N)=O)C(=O)N[C@H](C(=O)N[C@@H](Cc1ccc(O)cc1)C(N)=O)[C@@H](C)O)C(C)C)[C@@H](C)O)C(C)C [Example 28, N-epsilon3-[(S)-4-Carboxy-4-(17-carboxyheptadecanoylamino)butyryl]-[Lys3,Arg18,Gln21,Leu23,Val26]-pramlintide (1-37)] (H-KCK([γGlu-C18 diacid])TATCATQRLANFLVRSSQNLGPVLPPTNVGSNTY-NH2; disulfide 2-7)
